Measurements taken from publication PMC6066355, “Probing the binding site of novel selective positive allosteric modulators at the M1 muscarinic acetylcholine receptor” (Biochemical Pharmacology, 2018).
Where a chain is given by its changes, count along the chain named.

Key:
Type in all cases: cell-based
Y179^ECL2A M1 mAChR = target: T1, Y179^ECL2A M1 mAChR (Homo sapiens, UniProt P11229, Y179A); assay: IP-One (IP1) accumulation assay, FlpIn CHO cells
T1 construct: expressed in transfected cells
T1 sequence (P11229 1-460 Y179A): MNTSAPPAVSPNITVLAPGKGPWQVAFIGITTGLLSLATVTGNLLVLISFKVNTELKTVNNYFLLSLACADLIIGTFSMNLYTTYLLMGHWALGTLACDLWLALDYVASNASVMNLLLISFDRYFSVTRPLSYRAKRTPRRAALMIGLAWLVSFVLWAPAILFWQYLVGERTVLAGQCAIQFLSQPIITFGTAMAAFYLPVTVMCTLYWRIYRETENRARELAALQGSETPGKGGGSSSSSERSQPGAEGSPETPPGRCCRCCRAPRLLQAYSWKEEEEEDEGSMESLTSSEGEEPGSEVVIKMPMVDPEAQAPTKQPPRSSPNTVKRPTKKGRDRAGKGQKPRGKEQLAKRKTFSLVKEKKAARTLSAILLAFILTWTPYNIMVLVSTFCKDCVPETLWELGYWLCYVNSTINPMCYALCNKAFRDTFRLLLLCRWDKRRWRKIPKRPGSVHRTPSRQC
Protocol: (§1) The IP-One assay kit (Cisbio) was used for the direct quantitative measurement of myo-Inositol 1 phosphate (IP1). Cells were seeded at 25,000 per well into 96-well transparent cell culture plates and incubated overnight at 37 °C. […] Cells were then lysed with IP1 lysis buffer (50 mM HEPES pH 7.0, 15 mM KF, 1.5% V/V Triton-X-100, 3% V/V FBS, 0.2% W/V BSA), and IP1 levels were measured by incubation of cell lysates with FRET reagents (the cryptate-labeled anti-IP1 antibody and the d2-labeled IP1 analogue) for 1 h at 37 °C. […] Signals were expressed as the FRET ratio: F = (fluorescence665 nm/fluorescence590 nm) × 10^4, and normalized to the response to maximal ACh concentration (100 µM).
(§2) (Eq. (2)) was used:(2) Y=Basal+Em-Basal/1+KA+A/τA where Em is the maximal possible system response and Basal is the response in the absence of agonist. [A] denotes the concentration of ligand, and KA represents its equilibrium dissociation constants. τ denotes the intrinsic efficacy of the ligand, which incorporates the total receptor density and the efficiency of stimulus-response coupling.
(§3) Functional interaction studies between orthosteric agonists and allosteric modulators in IP1 assays were analysed using the following operational model of allosterism and agonism (Eq. (3)):(3) E=Basal+Em-BasalAKB+αβB+τBBEC50/EC50KB+B+AKB+αβB+τBBEC50 where Em is the maximal possible system response, and Basal is the response in the absence of agonist. KB is the equilibrium dissociation constant of allosteric ligand, and EC50 is the concentration of orthosteric agonist required to achieve half maximal response. [A] and [B] denote concentrations of orthosteric and allosteric ligands, respectively. α and β denote allosteric effects on orthosteric ligand binding affinity and efficacy, respectively, and τB denotes the efficacy of allosteric ligand. This model assumes that ACh is a full agonist at the receptor in both the absence/presence of modulator and/or there is no efficacy modulation (i.e., β = 1).

W400^7.35A M1 mAChR = target: T2, W400^7.35A M1 mAChR (Homo sapiens, UniProt P11229, W400A); assay: IP-One (IP1) accumulation assay, FlpIn CHO cells
T2 construct: expressed in transfected cells
T2 sequence (P11229 1-460 W400A): T1 sequence (P11229 1-460 Y179A) with A179Y, W400A
Protocol: as §1, §2, §3

F77^2.56I M1 mAChR = target: T3, F77^2.56I M1 mAChR (Homo sapiens, UniProt P11229, F77I); assay: IP-One (IP1) accumulation assay, FlpIn CHO cells; conditions: for LogτB (logarithm of functional efficacy of the modulator): corrected for receptor expression levels relative to WT; for τB (functional efficacy of the modulator, antilog in brackets): corrected for receptor expression relative to WT; for Logαβ (logarithm of functional cooperativity between ACh and modulator): pKB constrained to Table 1, β constrained to 1
T3 construct: expressed in transfected cells
T3 sequence (P11229 1-460 F77I): T1 sequence (P11229 1-460 Y179A) with F77I, A179Y
Protocol: as §1, §2, §3

WT M1 mAChR = target: T4, WT M1 mAChR (Homo sapiens, UniProt P11229); assay: IP-One (IP1) accumulation assay, CHO-hM1 cells; conditions: for αβ (functional cooperativity with ACh, antilog in brackets) / Logαβ (logarithm of functional cooperativity between ACh and modulator): non-alkylated; for Logαβ (logarithm of functional cooperativity between ACh and modulator): pKB constrained to Table 1, β constrained to 1
T4 construct: expressed in transfected cells
T4 sequence (P11229 1-460): T1 sequence (P11229 1-460 Y179A) with A179Y
Protocol: as §1, §2, §3

SMILES | Modulation of ACh-stimulated IP1 accumulation (Y179^ECL2A M1 mAChR) | Modulation of ACh-stimulated IP1 accumulation (W400^7.35A M1 mAChR) | αβ (functional cooperativity with ACh, antilog in brackets) (F77^2.56I M1 mAChR) | LogτB (logarithm of functional efficacy of the modulator) (F77^2.56I M1 mAChR) | τB (functional efficacy of the modulator, antilog in brackets) (F77^2.56I M1 mAChR) | Logαβ (logarithm of functional cooperativity between ACh and modulator) (F77^2.56I M1 mAChR) | LogτB (logarithm of functional efficacy of the modulator) (WT M1 mAChR) | τB (functional efficacy of the modulator, antilog in brackets) (WT M1 mAChR) | αβ (functional cooperativity with ACh, antilog in brackets) (WT M1 mAChR) | Logαβ (logarithm of functional cooperativity between ACh and modulator) (WT M1 mAChR)
Cc1cnc(C(=O)N[C@H]2CCOC[C@@H]2O)cc1Cc1ccc(-c2cscn2)cc1 [PF-06767832, N-((3R,4S)-3-hydroxytetrahydro-2H-pyran-4-yl)-5-methyl-4-(4-(thiazol-4-yl)benzyl)pyridine-2-carboxamide] | abolished | abolished | 112 | 1.51 ± 0.07 | 32 | 2.05 ± 0.13 | 1.01 ± 0.03 | 10 | 83 | 1.92 ± 0.11
Cn1cc(-c2ccc(COc3ccccc3-c3cc(=O)n(C4CCCCC4O)cn3)cc2)cn1 (stereo not drawn) [MIPS1780, 3-(2-hydroxycyclohexyl)-6-(2-((4-(1-methyl-1H-pyrazol-4-yl)-benzyl)oxy)phenyl)pyrimidin-4(3H)-one] | abolished | abolished | 63 | 1.52 ± 0.06 | 33 | 1.80 ± 0.15 | 1.00 ± 0.05 | 10 | 59 | 1.77 ± 0.14
Cn1cc(-c2ccc(Cn3cc(C(=O)N[C@H]4CCCC[C@@H]4O)c4c(F)cc(F)cc43)cn2)cn1 [VU6004256, 4,6-difluoro-N-(1S,2S)-2-hydroxycyclohexyl-1-((6-(1-methyl-1H-pyrazol-4-yl)pyridine-3-yl)methyl)-1H-indole-3-carboxamide] | abolished | abolished | 51 | 1.43 ± 0.06 | 27 | 1.71 ± 0.15 | 1.24 ± 0.05 | 17 | 60 | 1.78 ± 0.18
